Read-outs that look alike come from different tables or passages of the source. Starred links: 1 amine or outer side, 2 acyl side, 3 side chain; linkers in the order of their positions; H or OH if unused. Non-standard residues stand in square brackets, D forms with d. Residues, ends and D or L forms follow the SMILES beside them. Groups on a side chain read outwards from the residue. *: point of attachment. C20 diacid = O=C(O)CCCCCCCCCCCCCCCCCCC(=O)*; γGlu = O=C(O)[C@H](CCC(=O)[*:2])N[*:1]; αMeK = C[C@](N)(CCCCN)C(=O)O; AEEA = NCCOCCOCC(=O)O; Aib = CC(C)(N)C(=O)O
Experiments:
[1] = molecular target: T1, human GLP-1R (Homo sapiens, UniProt P43220); test: cAMP HTRF agonist activity assay in CHO-K1 cells expressing GLP-1R; assay type: cell-based; for Activity against human GLP-1R (EC50 nM): 5% FBS, 0.1% Casein
T1 construct: expressed in transfected cells; host or cells: CHO-K1 clonal cell line
Procedure: Functional activity was determined in CHO-K1 clonal cell lines expressing GIPR, GLP-1R, and GCGR. […] Each recipient cell (5000 cells/well) was added to an SV 96-well plate (Cisbio, 66PL96025) and incubated with the prepared polypeptide at 37°Cfor 30 min. The resulting increase in intracellular cAMP was quantitatively measured using the cAMP-GS dynamic HTRF assay kit (Cisbio, 62AM4PEJ). Briefly, the intracellular cAMP levels were determined by adding cAMP-d2 conjugate in cell lysis buffer, followed by the antibody anti-cAMP-Eu cryptate (also in cell lysis buffer).
Using the maximum response percentage vs. the added polypeptide concentration, the relative EC50 values were derived through nonlinear regression analysis and fitted to a four-parameter logarithmic equation. For specific data, refer to Tables 7-1 to 7-8 below. […]

[2] = molecular target: T2, human GIPR (Homo sapiens, UniProt P48546); test: cAMP HTRF agonist activity assay in CHO-K1 cells expressing GIPR; assay type: cell-based; details: read-out: Activity against human GIPR (EC50 nM); note: 5% FBS, 0.1% Casein
T2 construct: expressed in transfected cells; host or cells: CHO-K1 clonal cell line
T2 sequence (P48546 22-466): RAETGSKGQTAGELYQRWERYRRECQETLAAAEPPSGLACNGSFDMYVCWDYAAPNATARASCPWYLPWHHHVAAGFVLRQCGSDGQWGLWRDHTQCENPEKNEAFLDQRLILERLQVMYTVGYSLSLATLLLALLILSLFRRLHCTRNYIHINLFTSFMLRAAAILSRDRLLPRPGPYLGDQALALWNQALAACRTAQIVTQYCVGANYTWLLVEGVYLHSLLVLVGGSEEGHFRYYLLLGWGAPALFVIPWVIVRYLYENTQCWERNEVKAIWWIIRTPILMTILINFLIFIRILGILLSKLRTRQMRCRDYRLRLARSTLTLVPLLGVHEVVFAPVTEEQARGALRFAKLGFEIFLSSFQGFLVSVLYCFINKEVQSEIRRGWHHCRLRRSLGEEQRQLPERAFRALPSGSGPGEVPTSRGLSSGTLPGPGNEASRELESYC
Procedure, shortened: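 Clonal CHO-K1 lines, 5000 cells/well, exposed to polypeptides for 30 min at 37°C. Intracellular cAMP read by HTRF (cAMP-d2 conjugate plus anti-cAMP-Eu cryptate in lysis buffer). Relative EC50 from four-parameter nonlinear fit of percent maximum response against concentration.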

[3] = Pharmacokinetics in mice after single intravenous injection; design: species or system C57 mice; details: male, C57, mouse, in vivo, iv
Procedure, shortened: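 Male C57 mice (~25 g, 4-6 weeks, n=3) received a single i.v. dose of 200 nmol/kg in 1×PBS. Plasma collected from 5 min to 72 h was methanol-precipitated with verapamil internal standard and quantified by LC-MS (ESI positive, MRM); PK parameters were calculated by PKSolver.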

[4] = read-out: Activity against human GLP-1R (EC50 nM)

T1 sequence (P43220 24-463): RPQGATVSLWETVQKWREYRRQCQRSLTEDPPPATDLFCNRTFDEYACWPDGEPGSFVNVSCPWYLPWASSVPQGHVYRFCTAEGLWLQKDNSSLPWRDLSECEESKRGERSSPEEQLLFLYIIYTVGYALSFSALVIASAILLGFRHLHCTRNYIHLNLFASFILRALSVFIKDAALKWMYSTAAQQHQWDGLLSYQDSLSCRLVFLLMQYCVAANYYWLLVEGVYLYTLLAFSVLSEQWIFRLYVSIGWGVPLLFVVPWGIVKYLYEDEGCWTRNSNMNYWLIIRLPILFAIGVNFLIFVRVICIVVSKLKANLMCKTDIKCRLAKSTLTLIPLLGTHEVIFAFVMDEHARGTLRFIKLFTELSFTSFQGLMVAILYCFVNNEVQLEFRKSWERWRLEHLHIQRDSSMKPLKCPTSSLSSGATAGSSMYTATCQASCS

| SMILES | EC50 [1, 4] | EC50 [2] | further results |
| --- | --- | --- | --- |
| CC[C@H](C)[C@H](NC(=O)[C@H](CO)NC(=O)[C@H](CC(C)C)NC(=O)[C@H](CC(=O)O)NC(=O)[C@H](CO)NC(=O)[C@@H](NC(=O)[C@H](Cc1ccccc1)NC(=O)[C@@H](NC(=O)CNC(=O)[C@H](Cc1c[nH]cn1)NC(=O)C(C)(C)NC(=O)[C@@H](N)Cc1c[nH]cn1)[C@@H](C)O)[C@@H](C)O)C(=O)N[C@@H](CC(C)C)C(=O)N[C@@H](CC(C)C)C(=O)N[C@@H](CCC(=O)O)C(=O)N[C@@H](CCCCNC(=O)COCCOCCNC(=O)COCCOCCNC(=O)CC[C@H](NC(=O)CCCCCCCCCCCCCCCCCCC(=O)O)C(=O)O)C(=O)N[C@@H](CCCCN)C(=O)N[C@@H](C)C(=O)N[C@@H](C)C(=O)NC1(C(=O)N[C@@H](CCC(=O)O)C(=O)N[C@@H](Cc2ccccc2)C(=O)N[C@H](C(=O)N[C@@H](CCC(=O)O)C(=O)N[C@@H](Cc2c[nH]c3ccccc23)C(=O)N[C@@H](CC(C)C)C(=O)N[C@@H](CC(C)C)C(=O)N[C@@H](C)C(=O)N[C@H](CCC(=O)O)C(=O)NCC(=O)N2CCC[C@H]2C(=O)N[C@@H](CO)C(=O)N[C@@H](CO)C(=O)NCC(=O)N[C@@H](C)C(=O)N2CCC[C@H]2C(=O)N2CCC[C@H]2C(=O)N2CCC[C@H]2C(=O)N[C@@H](CO)C(N)=O)C(C)C)CC1 [Compound 0146] | 0.033 nM | 0.009 nM |  |
| CC[C@H](C)[C@H](NC(=O)[C@H](CO)NC(=O)[C@H](CC(C)C)NC(=O)[C@H](CC(=O)O)NC(=O)[C@H](CO)NC(=O)[C@@H](NC(=O)[C@H](Cc1ccccc1)NC(=O)[C@@H](NC(=O)CNC(=O)[C@H](Cc1c[nH]cn1)NC(=O)C(C)(C)NC(=O)[C@@H](N)Cc1c[nH]cn1)[C@@H](C)O)[C@@H](C)O)C(=O)N[C@@H](CC(C)C)C(=O)N[C@@H](CC(C)C)C(=O)N[C@@H](CCC(=O)O)C(=O)N[C@@H](CCCCNC(=O)COCCOCCNC(=O)COCCOCCNC(=O)CC[C@H](NC(=O)CCCCCCCCCCCCCCCCCCC(=O)O)C(=O)O)C(=O)N[C@@H](CCCCN)C(=O)N[C@@H](C)C(=O)N[C@@H](C)C(=O)N[C@@H](CCC(N)=O)C(=O)N[C@@H](CCC(=O)O)C(=O)N[C@@H](Cc1ccccc1)C(=O)N[C@H](C(=O)N[C@@H](CCC(=O)O)C(=O)N[C@@H](Cc1c[nH]c2ccccc12)C(=O)N[C@@H](CC(C)C)C(=O)N[C@@H](CC(C)C)C(=O)N[C@@H](C)C(=O)N[C@H](CCC(=O)O)C(=O)NCC(=O)N1CCC[C@H]1C(=O)N[C@@H](CO)C(=O)N[C@@H](CO)C(=O)NCC(=O)N[C@@H](C)C(=O)N1CCC[C@H]1C(=O)N1CCC[C@H]1C(=O)N1CCC[C@H]1C(=O)N[C@@H](CO)C(N)=O)C(C)C [Compound 0144] | 0.035 nM |  | clearance [3]: 0.114 mL/min/kg; half-life [3]: 9.7 h |
| CC[C@H](C)[C@H](NC(=O)[C@H](CO)NC(=O)[C@H](Cc1ccc(O)cc1)NC(=O)[C@H](CC(=O)O)NC(=O)[C@H](CO)NC(=O)[C@@H](NC(=O)[C@H](Cc1ccccc1)NC(=O)[C@@H](NC(=O)CNC(=O)[C@H](CCC(N)=O)NC(=O)C(C)(C)NC(=O)[C@@H](N)Cc1c[nH]cn1)[C@@H](C)O)[C@@H](C)O)C(=O)N[C@@H](CC(C)C)C(=O)N[C@@H](CC(C)C)C(=O)N[C@@H](CCC(=O)O)C(=O)N[C@@H](CCCCNC(=O)COCCOCCNC(=O)COCCOCCNC(=O)CC[C@H](NC(=O)CCCCCCCCCCCCCCCCCCC(=O)O)C(=O)O)C(=O)N[C@@H](CCCCN)C(=O)N[C@@H](C)C(=O)N[C@@H](C)C(=O)N[C@@H](CCC(N)=O)C(=O)N[C@@H](CCC(=O)O)C(=O)N[C@@H](Cc1ccccc1)C(=O)N[C@H](C(=O)N[C@@H](CCC(=O)O)C(=O)N[C@@H](Cc1c[nH]c2ccccc12)C(=O)N[C@@H](CC(C)C)C(=O)N[C@@H](CC(C)C)C(=O)N[C@@H](C)C(=O)NCC(=O)NCC(=O)N1CCC[C@H]1C(=O)N[C@@H](CO)C(=O)N[C@@H](CO)C(=O)NCC(=O)N[C@@H](C)C(=O)N1CCC[C@H]1C(=O)N1CCC[C@H]1C(=O)N1CCC[C@H]1C(=O)N[C@@H](CO)C(N)=O)C(C)C [Compound 0154] (H-H[Aib]QGTFTSDYSILLEK([AEEA-AEEA-γGlu-C20 diacid])KAAQEFVEWLLAGGPSSGAPPPS-NH2) | 0.033 nM |  |  |
| CC[C@H](C)[C@H](NC(=O)[C@H](CO)NC(=O)[C@H](CC(C)C)NC(=O)[C@H](CC(=O)O)NC(=O)[C@H](CO)NC(=O)[C@@H](NC(=O)[C@H](Cc1ccccc1)NC(=O)[C@@H](NC(=O)CNC(=O)[C@H](Cc1c[nH]cn1)NC(=O)C(C)(C)NC(=O)[C@@H](N)Cc1c[nH]cn1)[C@@H](C)O)[C@@H](C)O)C(=O)N[C@@H](CC(C)C)C(=O)N[C@@H](CC(C)C)C(=O)N[C@@H](CCC(=O)O)C(=O)N[C@@H](CCCCNC(=O)COCCOCCNC(=O)COCCOCCNC(=O)CC[C@H](NC(=O)CCCCCCCCCCCCCCCCCCC(=O)O)C(=O)O)C(=O)N[C@@H](CCCCN)C(=O)N[C@@H](C)C(=O)N[C@@H](C)C(=O)NC1(C(=O)N[C@@H](CCC(=O)O)C(=O)N[C@@H](Cc2ccccc2)C(=O)N[C@H](C(=O)N[C@@H](CCC(=O)O)C(=O)N[C@@H](Cc2c[nH]c3ccccc23)C(=O)N[C@@H](CC(C)C)C(=O)N[C@@H](CC(C)C)C(=O)N[C@@H](C)C(=O)N[C@H](CCC(=O)O)C(=O)NCC(=O)N2CCC[C@H]2C(=O)N[C@@H](CO)C(=O)N[C@@H](CO)C(=O)NCC(=O)N[C@@H](C)C(=O)N2CCC[C@H]2C(=O)N2CCC[C@H]2C(=O)N2CCC[C@H]2C(=O)N[C@@H](CO)C(N)=O)C(C)C)CCC1 [Compound 0147] | 0.035 nM | 0.005 nM |  |
| CC(C)C[C@H](NC(=O)[C@H](CC(C)C)NC(=O)[C@H](Cc1c[nH]c2ccccc12)NC(=O)[C@H](CCC(=O)O)NC(=O)[C@@H](NC(=O)[C@H](Cc1ccccc1)NC(=O)[C@H](CCC(=O)O)NC(=O)[C@H](CCC(N)=O)NC(=O)[C@H](CCC(N)=O)NC(=O)[C@H](C)NC(=O)[C@H](CCCCN)NC(=O)[C@H](CCCCNC(=O)COCCOCCNC(=O)COCCOCCNC(=O)CC[C@H](NC(=O)CCCCCCCCCCCCCCCCCCC(=O)O)C(=O)O)NC(=O)[C@H](CCC(=O)O)NC(=O)[C@H](CC(C)C)NC(=O)[C@H](Cc1ccc(O)cc1)NC(=O)[C@](C)(CCCCN)NC(=O)[C@H](CO)NC(=O)[C@H](Cc1ccc(O)cc1)NC(=O)[C@H](CC(=O)O)NC(=O)[C@H](CO)NC(=O)[C@@H](NC(=O)[C@H](Cc1ccccc1)NC(=O)[C@@H](NC(=O)CNC(=O)[C@H](Cc1c[nH]cn1)NC(=O)C(C)(C)NC(=O)[C@@H](N)Cc1c[nH]cn1)[C@@H](C)O)[C@@H](C)O)C(C)C)C(=O)N[C@@H](C)C(=O)NCC(=O)NCC(=O)N1CCC[C@H]1C(=O)N[C@@H](CO)C(=O)N[C@@H](CO)C(=O)NCC(=O)N[C@@H](C)C(=O)N1CCC[C@H]1C(=O)N1CCC[C@H]1C(=O)N1CCC[C@H]1C(=O)N[C@@H](CO)C(N)=O [Compound 0113] (H-H[Aib]HGTFTSDYS[αMeK]YLEK([AEEA-AEEA-γGlu-C20 diacid])KAQQEFVEWLLAGGPSSGAPPPS-NH2) |  |  | EC50 [1]: 0.032 nM |
| CC(C)C[C@H](NC(=O)[C@H](CC(C)C)NC(=O)[C@H](Cc1c[nH]c2ccccc12)NC(=O)[C@H](CCC(=O)O)NC(=O)[C@@H](NC(=O)[C@H](Cc1ccccc1)NC(=O)[C@H](CCC(=O)O)NC(=O)[C@H](CCC(N)=O)NC(=O)[C@H](C)NC(=O)[C@H](C)NC(=O)[C@H](CCCCN)NC(=O)[C@H](CCCCNC(=O)COCCOCCNC(=O)COCCOCCNC(=O)CC[C@H](NC(=O)CCCCCCCCCCCCCCCCCCC(=O)O)C(=O)O)NC(=O)[C@H](CCC(=O)O)NC(=O)[C@H](CC(C)C)NC(=O)C(C)(C)NC(=O)[C@H](CCCCN)NC(=O)[C@H](CO)NC(=O)[C@H](Cc1ccc(O)cc1)NC(=O)[C@H](CC(=O)O)NC(=O)[C@H](CO)NC(=O)[C@@H](NC(=O)[C@H](Cc1ccccc1)NC(=O)[C@@H](NC(=O)CNC(=O)[C@H](Cc1c[nH]cn1)NC(=O)C(C)(C)NC(=O)[C@@H](N)Cc1c[nH]cn1)[C@@H](C)O)[C@@H](C)O)C(C)C)C(=O)N[C@@H](C)C(=O)NCC(=O)NCC(=O)N1CCC[C@H]1C(=O)N[C@@H](CO)C(=O)N[C@@H](CO)C(=O)NCC(=O)N[C@@H](C)C(=O)N1CCC[C@H]1C(=O)N1CCC[C@H]1C(=O)N1CCC[C@H]1C(=O)N[C@@H](CO)C(N)=O [Compound 0107] | 0.016 nM |  |  |

From patent EP4745153A1, “GLP-1, GIP AND GCG RECEPTOR […] USE THEREOF” (Jiangsu Hengrui Pharmaceuticals Co., Ltd., priority 2023, dated 2025)
